In patent US20230072164A1, “GRANULAR PHARMACEUTICAL PRODUCT FOR ORAL ADMINISTRATION FROM A PRE-FILLED STRAW AND METHOD OF MANUFACTURING SUCH PHARMACEUTICAL PRODUCT” (ALTERNO LABS D.O.O., priority 2020, published 2023):

Legend:
Assay type in all cases: physicochemical
[1] = Particle size distribution by laser diffraction (dry powder)
Experimental: The particle size distribution of powder samples (crystals, coated crystals) was determined using a laser diffraction analyzer (Malvern Mastersizer 3000, Worcestershire, United Kingdom) connected to Aero S dry powder dispersion, as this technique enables measurement in the range between 100 nm and 3500 μm. Approximately 2-3 g of sample was put into the dosing device, air pressure was set to 1.2 bar for coated crystals and granulates (for micronized paracetamol the dispersing air pressure was set to 3.0 bar). Measurement was performed automatically when obscuration was in a range between 0.5 and 5%. Background measurements were performed for 10 seconds and the stabilization time delay before initialization (time before measurements after the desired obscuration was achieved) was set to 3 seconds and measurement duration to 5 seconds respectively. The nonspherical measurement mode approximation was used to determine the particle size distribution for paracetamol crystals and coated crystals. A refraction index and absorption rate for paracetamol were set to 1.62 and 0.01 respectively. The distribution results were expressed as three values: d10, where 10% of the particle population lies below the measured value; d50, the median value; and d90, where 90 percent of the population lies below the measured value.

[2] = Sessile drop water contact angle on compressed plates; set-up: key to Observed sweling: — = not measurable; * = observed; ** = fast swelling; *** = very fast swelling; conditions: for Δ θ: decrease of water contact angle from 0 s to 30 s; for Observed sweling: during contact angle measurement; for θ at time 0 s (st. deviation) / θ at time 30 s (st. deviation): sessile drop water contact angle, 3 μL drop, flat surface plate, room temperature
Experimental: The water contact angle on compressed powders of the different polymers used as the first coating layer, trehalose and erythritol was measured with a Kruss sessile drop contact angle meter DSA100 (Krυss, Germany) at room temperature. 200 mg of powder was compressed with a Specac hydraulic press (Kent, England) with a 10 s dwell time at a pressure of 4×10^8 Pa. A circular punch and dye assembly (12 mm diameter) with polished stainless steel round punches were used for compression. At least six repetitions on three different plates of the same polymer or other two excipients were performed to ensure the reproducibility of results. Measurements were performed with 3 μL water drop and video recording (software DSA 1.90.0.14 Krυss, Germany) that enabled the determination of contact angles at time zero and 30 seconds later. Contact angles at these two-time points together with visual observation of surface swelling were taken as relevant parameters for polymers differentiation. In the same manner, trehalose and erythritol were also analyzed.

[3] = Dissolution of coated paracetamol crystals in water (taste masking, non-compendial); conditions: 100 mL purified water, room temperature
Experimental: A non-compendial test was performed in order to simulate the taste masking efficinecy of polymer coat during drug sipping. Pure paracetamol crystals were used as reference material. 100 mL of purified water was transferred in an Erlenmeyer flask on a magnetic stirrer at room temperature. The test formulation containing 250 mg of paracetamol was suspended in the Erlenmeyer flask and aliquotes of 5.0 mL were withdrawn at intervals of 0.5, 1.0, 1.5, 2.0, 2.5, 3.0 and 5.0 minutes (±15% tolerance limit for time) and replaced with an equal volume of purified water (freshwater, maintained at the same temperature) at each sampling point. Samples were immediately filtered using 0.45 μm RC syringe filters.
Samples were appropriately diluted and analyzed by HPLC. The amount of drug release was calculated from a standard calibration curve, which was prepared on the day of the experiment.

[4] = Example 3, coated crystals 250-500 μm, milled erythritol, final granules from high shear mixer
[5] = laser diffraction, Comparative Example 1 and Example 2

Row | d10 [1, 4] | d50 [1, 4] | d90 [1, 4] | Δ θ [2] | Observed sweling [2] | θ at time 0 s (st. deviation) [2] | θ at time 30 s (st. deviation) [2] | d10 [1, 5] | d50 [1, 5] | d90 [1, 5] | SMILES | dissolution rate in water [3]
1 | 7 μm | 46 μm | 108 μm | 0 ° | — | 0 ° | 0 ° |  |  |  | OC[C@@H](O)[C@@H](O)CO [Erythritol, erythritol] | 
2 |  |  |  |  |  |  |  | 208 μm | 458 μm | 772 μm | CC(=O)Nc1ccc(O)cc1 [Paracetamol—large crystals, uncoated, paracetamol] | dissoves much faster than from coated particles
3 |  |  |  |  |  |  |  | 5 μm | 32 μm | 152 μm | CC(=O)Nc1ccc(O)cc1 [Paracetamol—milled, uncoated, paracetamol] | 
4 |  |  |  | 4.8 ° | — | 13.4 (1.9) ° | 8.6 (2.0) ° |  |  |  | OC[C@H]1O[C@H](O[C@H]2O[C@H](CO)[C@@H](O)[C@H](O)[C@H]2O)[C@H](O)[C@@H](O)[C@@H]1O [Trehalose, trehalose] | 
